Key:
Assay in all cases: Kinase inhibitor library screening, PrestoBlue cell viability, 1 or 10 μM, 72 h
501Mel cells (parental) = details: 72 h
Method in brief: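 Readout: PrestoBlue signal on a monochromator plate reader, given as percent viability relative to untreated controls. Parental and drug-resistant (Vemurafenib XP, Dabrafenib GP) sublines were tested; at least duplicates per line.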

[1] = tested on: 501Mel-GP cells (Dabrafenib-resistant); details: 72 h
[2] = tested on: 501Mel-XP cells (Vemurafenib-resistant); details: 72 h
A375 cells (parental) = tested on: A375 cells (parental)
[3] = tested on: A375-GP cells (Dabrafenib-resistant)
[4] = tested on: A375-XP cells (Vemurafenib-resistant)
IGR37 cells (parental) = tested on: IGR37 cells (parental)
[5] = tested on: IGR37-GP cells (Dabrafenib-resistant)
[6] = tested on: IGR37-XP cells (Vemurafenib-resistant)
[7] = IGR37 Parental, 1μΜ, 72 h, in %
[8] = IGR37 Parental, 10μΜ, 72 h, in %

Nc1cc(C(F)(F)F)c(-c2cc(N3CCOCC3)nc(N3CCOCC3)n2)cn1 [BKM120 (Buparlisib)]
Cell viability in kinase inhibitor library screening, 501Mel Parental, 1μΜ (501Mel cells (parental); 501Mel Parental, 1μΜ, in %): 71.1 | Cell viability in kinase inhibitor library screening, 501Mel Parental, 10μΜ (501Mel cells (parental); 501Mel Parental, 10μΜ, in %): 10.8 | Cell viability in kinase inhibitor library screening, 501Mel GP, 1μΜ ([1]; 501Mel GP, 1μΜ, in %): 60.8 | Cell viability in kinase inhibitor library screening, 501Mel GP, 10μΜ ([1]; 501Mel GP, 10μΜ, in %): 9.6 | Cell viability in kinase inhibitor library screening, 501Mel XP, 1μΜ ([2]; 501Mel XP, 1μΜ, in %): 54.8 | Cell viability in kinase inhibitor library screening, 501Mel XP, 10μΜ ([2]; 501Mel XP, 10μΜ, in %): 3.6 | Cell viability in kinase inhibitor library screening, A375 Parental, 10μΜ (A375 cells (parental); A375 Parental, 10μΜ, 72 h): 9.8 | Cell viability in kinase inhibitor library screening, A375 Parental, 1μΜ (A375 cells (parental); A375 Parental, 1μΜ, 72 h): 67.0 | Cell viability in kinase inhibitor library screening, A375 GP, 1μΜ ([3]; A375 GP, 1μΜ, 72 h): 59.6 | Cell viability in kinase inhibitor library screening, A375 GP, 10μΜ ([3]; A375 GP, 10μΜ, 72 h): 7.7 | Cell viability in kinase inhibitor library screening, A375 XP, 1μΜ ([4]; A375 XP, 1μΜ, 72 h): 70.4 | Cell viability in kinase inhibitor library screening, A375 XP, 10μΜ ([4]; A375 XP, 10μΜ, 72 h): 10.0 | Cell viability in kinase inhibitor library screening, IGR37 Parental, 1μΜ (IGR37 cells (parental); [7]): 91.7 | Cell viability in kinase inhibitor library screening, IGR37 Parental, 10μΜ (IGR37 cells (parental); [8]): 30.3 | Cell viability in kinase inhibitor library screening, IGR37 GP, 10μΜ ([5]; IGR37 GP, 10μΜ, 72 h): 20.9% | Cell viability in kinase inhibitor library screening, IGR37 GP, 1μΜ ([5]; IGR37 GP, 1μΜ, 72 h, in %): 82.3 | Cell viability in kinase inhibitor library screening, IGR37 XP, 10μΜ ([6]; IGR37 XP, 10μΜ, 72 h): 7.4% | Cell viability in kinase inhibitor library screening, IGR37 XP, 1μΜ ([6]; IGR37 XP, 1μΜ, 72 h, in %): 78.7

CNC(=O)CN1CCC(Oc2cc3c(Nc4cccc(Cl)c4F)ncnc3cc2OC)CC1 [AZD8931]
viability at 1 µM (501Mel cells (parental); Homo sapiens, read-out: cell viability, 501Mel Parental, 1μΜ): 90.5% | viability at 10 µM (501Mel cells (parental); Homo sapiens, read-out: cell viability, 501Mel Parental, 10μΜ): 86% | viability at 1 µM ([1]; Homo sapiens, read-out: cell viability, 501Mel GP, 1μΜ): 100% | viability at 10 µM ([1]; Homo sapiens, read-out: cell viability, 501Mel GP, 10μΜ): 79.7% | viability at 1 µM ([2]; Homo sapiens, read-out: cell viability, 501Mel XP, 1μΜ): 94.5% | viability at 10 µM ([2]; Homo sapiens, read-out: cell viability, 501Mel XP, 10μΜ): 68.3% | viability at 1 µM (A375 cells (parental); Homo sapiens, A-375, 72 h, read-out: cell viability, A375 Parental, 1μΜ): 96.7% | viability at 10 µM (A375 cells (parental); Homo sapiens, A-375, 72 h, read-out: cell viability, A375 Parental, 10μΜ): 83.8% | viability at 1 µM ([3]; Homo sapiens, A-375, 72 h, read-out: cell viability, A375 GP, 1μΜ): 103% | viability at 10 µM ([3]; Homo sapiens, A-375, 72 h, read-out: cell viability, A375 GP, 10μΜ): 74.8% | viability at 1 µM ([4]; Homo sapiens, A-375, 72 h, read-out: cell viability, A375 XP, 1μΜ): 96.5% | viability at 10 µM ([4]; Homo sapiens, A-375, 72 h, read-out: cell viability, A375 XP, 10μΜ): 86% | viability at 1 µM (IGR37 cells (parental); Homo sapiens, IGR-37, 72 h, read-out: cell viability, IGR37 Parental, 1μΜ): 96.3% | viability at 10 µM (IGR37 cells (parental); Homo sapiens, IGR-37, 72 h, read-out: cell viability, IGR37 Parental, 10μΜ): 98.9% | viability at 1 µM ([5]; Homo sapiens, IGR-37, 72 h, read-out: cell viability, IGR37 GP, 1μΜ): 90.4% | viability at 10 µM ([5]; Homo sapiens, IGR-37, 72 h, read-out: cell viability, IGR37 GP, 10μΜ): 78% | viability at 1 µM ([6]; Homo sapiens, IGR-37, 72 h, read-out: cell viability, IGR37 XP, 1μΜ): 71.9% | viability at 10 µM ([6]; Homo sapiens, IGR-37, 72 h, read-out: cell viability, IGR37 XP, 10μΜ): 50%

Cn1cc(-c2ccc3ncc(Cc4ccc5ncccc5c4)n3n2)cn1 [NVP-BVU972]
cell viability (kinase inhibitor library screening) (501Mel cells (parental); 501Mel Parental, 1μΜ): 107.5% | cell viability (kinase inhibitor library screening) (501Mel cells (parental); 501Mel Parental, 10μΜ): 89.2% | cell viability (kinase inhibitor library screening) ([1]; 501Mel GP, 1μΜ): 89.9% | cell viability (kinase inhibitor library screening) ([1]; 501Mel GP, 10μΜ): 69.4% | cell viability (kinase inhibitor library screening) ([2]; 501Mel XP, 1μΜ): 74.0% | cell viability (kinase inhibitor library screening) ([2]; 501Mel XP, 10μΜ): 62.7% | cell viability (kinase inhibitor library screening) (A375 cells (parental); A375 Parental, 10μΜ, 72 h): 100.0% | cell viability (kinase inhibitor library screening) (A375 cells (parental); A375 Parental, 1μΜ, 72 h): 108.4% | cell viability (kinase inhibitor library screening) ([3]; A375 GP, 1μΜ, 72 h): 106.0% | cell viability (kinase inhibitor library screening) ([3]; A375 GP, 10μΜ, 72 h): 100.5% | cell viability (kinase inhibitor library screening) ([4]; A375 XP, 1μΜ, 72 h): 109.6% | cell viability (kinase inhibitor library screening) ([4]; A375 XP, 10μΜ, 72 h): 105.5% | cell viability (kinase inhibitor library screening) (IGR37 cells (parental); IGR37 Parental, 1μΜ, 72 h): 104.5% | cell viability (kinase inhibitor library screening) (IGR37 cells (parental); IGR37 Parental, 10μΜ, 72 h): 96.9% | cell viability (kinase inhibitor library screening) ([5]; IGR37 GP, 1μΜ, 72 h): 108.8% | cell viability (kinase inhibitor library screening) ([5]; IGR37 GP, 10μΜ, 72 h): 87.7% | cell viability (kinase inhibitor library screening) ([6]; IGR37 XP, 1μΜ, 72 h): 110.4% | cell viability (kinase inhibitor library screening) ([6]; IGR37 XP, 10μΜ, 72 h): 86.2%

CCOc1cc2ncc(C#N)c(Nc3ccc(OCc4ccccn4)c(Cl)c3)c2cc1NC(=O)/C=C/CN(C)C [Neratinib (HKI-272)]
cell viability, 501Mel Parental, 1μΜ (501Mel cells (parental); 501Mel Parental, 1μΜ, in %): 96.7 | cell viability, 501Mel Parental, 10μΜ (501Mel cells (parental); 501Mel Parental, 10μΜ, in %): 54.8 | cell viability, 501Mel GP, 1μΜ ([1]; 501Mel GP, 1μΜ, in %): 103.4 | cell viability, 501Mel GP, 10μΜ ([1]; 501Mel GP, 10μΜ, in %): 64.1 | cell viability, 501Mel XP, 1μΜ ([2]; 501Mel XP, 1μΜ, in %): 85.2 | cell viability, 501Mel XP, 10μΜ ([2]; 501Mel XP, 10μΜ, in %): 0.0171 | cell viability, A375 Parental, 1μΜ (A375 cells (parental); A375 Parental, 1μΜ, 72 h, in %): 97.5 | cell viability, A375 Parental, 10μΜ (A375 cells (parental); A375 Parental, 10μΜ, 72 h, in %): 29.0 | cell viability, A375 GP, 1μΜ ([3]; A375 GP, 1μΜ, 72 h, in %): 93.4 | cell viability, A375 GP, 10μΜ ([3]; A375 GP, 10μΜ, 72 h, in %): 4.2 | cell viability, A375 XP, 1μΜ ([4]; A375 XP, 1μΜ, 72 h, in %): 89.5 | cell viability, A375 XP, 10μΜ ([4]; A375 XP, 10μΜ, 72 h, in %): 10.7 | cell viability, IGR37 Parental, 1μΜ (IGR37 cells (parental); [7]): 96.7 | cell viability, IGR37 Parental, 10μΜ (IGR37 cells (parental); [8]): 66.7 | cell viability, IGR37 GP, 10μΜ ([5]; IGR37 GP, 10μΜ, 72 h): 21.6% | cell viability, IGR37 GP, 1μΜ ([5]; IGR37 GP, 1μΜ, 72 h, in %): 81.2 | cell viability, IGR37 XP, 10μΜ ([6]; IGR37 XP, 10μΜ, 72 h): 9.6% | cell viability, IGR37 XP, 1μΜ ([6]; IGR37 XP, 1μΜ, 72 h, in %): 75.0
